Laboratory results taken from a compilation of properties of binary mixtures (doi:10.1021/acs.jced.0c01028).

Assay: xn = mol fraction of the nth substance listed
Conditions: 81.5 kPa

CCCC[n+]1ccn(C)c1.N#C[S-] + CCCCC(C)O
x1 = 1
Conditions	speed of sound [m/s]
298.15 K	1762
308.15 K	1738
318.15 K	1714
328.15 K	1691
338.15 K	1668

CCCCC(C)O (configuration not stated) + CCCC[n+]1ccn(C)c1.N#C[S-]
speed of sound [m/s]
Conditions	x2 = 0	x2 = 0.1011	x2 = 0.2003	x2 = 0.2992	x2 = 0.3988	x2 = 0.4964	x2 = 0.6029	x2 = 0.6993	x2 = 0.7996	x2 = 0.8987
288.15 K	1299	–	1397	1448	1497	1549	1601	1653	–	1748
298.15 K	–	1316	1366	–	1469	1521	1574	1628	1673	1724
308.15 K	1226	1283	1335	1389	1441	1494	1549	1603	–	1700
318.15 K	1189	–	1304	–	–	1471	1530	1581	1632	1676
328.15 K	1153	–	–	1331	1385	1441	1498	1554	1601	1653
338.15 K	1117	1183	–	1302	1357	–	1474	–	1577	1630
